Broadly, the inhibition is the percentage by which the read-out fell short of the control.

Test [1] concerns Glutamine synthetase (Ovis aries). Nature of the test: Percent inhibition was measured on Sheep Brain […] at 0.1 mM concentration.
Test [2] shares this test system. The following applies: at 0.5 mM.
The test system of test [3] is Glutamine synthetase (Glycine max). The following applies: at 0.1 mM.
The test system is the same in test [4]. The note with it: at 0.2 mM.
Test [5] deals with Glutamine synthetase (Ovis aries). The note with it: at 0.2 mM.
Test [6] concerns Glutamine synthetase (Glycine max). The note with it: at 0.5 mM.
The test system of test [7] is Glutamine synthetase (Ovis aries). Nature of the test: Percent inhibition was measured on Sheep Brain Glutamine synthetase at 0.2 mM concentration.
Test [8] shares this test system. Nature of the test: Percent inhibition was measured on Sheep Brain Glutamine synthetase at 0.5 mM concentration.
Test [9] has as its system Glutamine synthetase (Glycine max). Nature of the test: Percent inhibition was measured on Soybean Glutamine synthetase at 0.2 mM concentration.
The test system is the same in test [10]. Nature of the test: Percent inhibition was measured on Soybean Glutamine synthetase at 0.5 mM concentration.
In test [11] the test system is Glutamine synthetase (Ovis aries). Description: Percent inhibition was measured on Sheep Brain Glutamine synthetase at 0.1 mM concentration.

In the case of `CNO`, the inhibition stood at 0% in [1]; 8% in test [2]; 0% in test [3]; 0% in test [4]; 4% in [5]; 0% in test [6].
On to `NCC(O)CCC(N)C(=O)O` (configuration not stated), for which the inhibition in [7] is 11%; in [8], 22%; in test [3], 5%; in test [9], 9%; in test [10], 21%; in [11], 5%.

Values taken from ChEMBL document CHEMBL1124044, “4-N-hydroxy-L-2,4-diaminobutyric acid. A strong inhibitor of glutamine synthetase” (J Med Chem, 1988).
